Measurements as given in patent US20200239530A1, “COMPOUNDS AND METHODS OF MODULATING PROTEIN DEGRADATION” (Vividion Therapeutics, Inc., priority 2017, published 2020).

Tests used:
Test in all cases: Cysteine liganding, probe competition
Format in all cases: binding
[1] = biological target: T1, MAPK8 Mitogen-activated protein kinase 8 (Homo sapiens, UniProt P45983); conditions: for 100 Max / 100 ave / 500 ave / 500 Max: uniprot P45983; for 500 Max: in % (unit assumed)
T1 construct: Cells were resuspended in cold PBS on ice and sonicated with a probe sonicator to achieve lysis; endogenous in cells
How it was run: (§1)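 Probe competition in native proteome: 5 mg/ml lysate, compound 1 hr 25° C, then desthiobiotin iodoacetamide (10 mM stock) 1 hr 25° C; acetone ppt, urea/DTT reduction, iodoacetamide alkylation, trypsin, streptavidin pull-down.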

[2] = biological target: T2, RPN1 Dolichyl-diphosphooligosaccharide--protein glycosy (Homo sapiens, UniProt P04843)
T2 construct: Cells were resuspended in cold PBS on ice and sonicated with a probe sonicator to achieve lysis; endogenous in cells
T2 sequence (P04843 24-607): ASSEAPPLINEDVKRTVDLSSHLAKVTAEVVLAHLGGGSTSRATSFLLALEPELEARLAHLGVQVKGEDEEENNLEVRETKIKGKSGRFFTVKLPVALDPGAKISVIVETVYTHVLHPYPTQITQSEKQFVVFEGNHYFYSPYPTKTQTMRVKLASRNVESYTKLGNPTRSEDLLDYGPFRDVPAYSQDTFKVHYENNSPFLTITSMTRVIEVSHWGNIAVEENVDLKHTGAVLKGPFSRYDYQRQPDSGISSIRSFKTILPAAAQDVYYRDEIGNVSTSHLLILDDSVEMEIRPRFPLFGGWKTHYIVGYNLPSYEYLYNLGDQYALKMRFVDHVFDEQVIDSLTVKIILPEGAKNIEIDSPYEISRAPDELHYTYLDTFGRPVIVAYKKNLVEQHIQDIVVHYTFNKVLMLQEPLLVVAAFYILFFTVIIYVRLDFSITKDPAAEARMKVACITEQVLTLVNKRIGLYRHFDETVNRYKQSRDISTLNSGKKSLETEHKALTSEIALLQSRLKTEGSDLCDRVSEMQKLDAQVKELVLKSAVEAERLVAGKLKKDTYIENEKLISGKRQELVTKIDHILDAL
How it was run: as §1

[3] = biological target: T3, UBR4 E3 ubiquitin-protein ligase UBR4 (Homo sapiens, UniProt Q5T4S7)
T3 construct: Cells were resuspended in cold PBS on ice and sonicated with a probe sonicator to achieve lysis; endogenous in cells
How it was run: as §1

T1 sequence (P45983 whole entry): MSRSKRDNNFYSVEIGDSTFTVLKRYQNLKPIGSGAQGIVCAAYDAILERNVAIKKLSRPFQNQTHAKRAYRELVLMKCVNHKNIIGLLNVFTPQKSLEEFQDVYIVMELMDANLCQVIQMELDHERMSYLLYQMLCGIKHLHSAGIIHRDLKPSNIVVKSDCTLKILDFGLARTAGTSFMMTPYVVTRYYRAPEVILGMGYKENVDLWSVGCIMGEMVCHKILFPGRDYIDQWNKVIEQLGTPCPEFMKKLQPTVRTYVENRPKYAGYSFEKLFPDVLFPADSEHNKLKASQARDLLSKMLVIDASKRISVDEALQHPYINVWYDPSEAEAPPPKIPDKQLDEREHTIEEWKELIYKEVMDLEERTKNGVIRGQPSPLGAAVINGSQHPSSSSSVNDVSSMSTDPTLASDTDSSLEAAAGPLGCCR

COc1ccc2c(c1)CCCN2C(=O)CCl [KB02]
Liganded ([1]; MAPK8 Res# 245, uniprot P45983): YES | 100 Max [1]: 44.42 | 100 ave [1]: 26.11 | 500 ave [1]: 76.89 | 500 Max [1]: 78.63 | Liganded ([2]; RPN1 Res# 477, uniprot P04843): YES | Liganded ([3]; UBR4 Res# 4049, uniprot Q5T4S7): YES

O=C(CCl)Nc1cc(C(F)(F)F)cc(C(F)(F)F)c1 [KBO3]
100 Max [1]: 17.22 | 100 ave [1]: 12.33 | 500 ave [1]: 40.875 | 500 Max [1]: 44.06 | 100 Max ([2]; uniprot P04843): 9.24 | 100 ave ([2]; uniprot P04843): −5.035 | 500 ave ([2]; uniprot P04843): 23.85 | 500 Max ([2]; uniprot P04843, in % (unit assumed)): 28.71 | 100 Max ([3]; uniprot Q5T4S7): 13.1 | 100 ave ([3]; uniprot Q5T4S7): −4.9 | 500 Max ([3]; uniprot Q5T4S7): 49.5 | 500 ave ([3]; uniprot Q5T4S7): 29.3
